From patent US6218406A, “Farnesyl transferase inhibitors, their preparation, the pharmaceutical compositions which contain them and their use in the preparation of medicaments” (Aventis Pharma S.A., priority 1996, dated 2001)

molecular target: farnesyl transferase (Homo sapiens, UniProt P49354+P49356); experiment: Farnesyl transferase inhibition, [3H]-farnesylation of biotinylated K-ras C-terminal peptide (SPA assay); format: biochemical; conditions: In vitro inhibitory activity (K-Ras) IC50, K-Ras substrate; 60 min at 37° C.; mean of two IC50 values
Protocol: The farnesyl transferase activity was measured by the amount farnesylated of K-ras substrate or of substrate derived from the peptide corresponding to its C-terminal part, the farnesyl group being introduced by farnesyl pyrophosphate (FPP).
It was then brought into contact with PVT-streptavidin (Amersham)® beads and was quantified by proximity scintillation (SPA assay) between the tritium and the PVT beads, by virtue of the streptavidin/biotin interaction.
Experimentally, farnesyl transferase purified according to the appended protocol was diluted, for this assay, to a concentration such that a consumption of substrates of less than 30% was obtained.
The reaction, carried out in Optiplates 96° microtitration plates, was initiated by the enzyme and lasted sixty minutes at 37° C. It was stopped by addition of 150 μl of mixture of a blocking buffer at pH 4 composed of 0.2M H3 PO4, 1.5 mM MgCl2, 0.5% (w/v) BSA, 0.05% (w/v) sodium azide containing 200 μg of PVT-streptavidin beads.
After slow agitation for thirty minutes (in order to remove the chemiluminescence), the plates were read as [^3 H]CPM in a Top Count® (Packard) scintillation counter for microplates, where they were converted into [^3 H]DPM from a range of coloured agent attenuating the scintillation (quenching).
The percentages of inhibition were calculated with respect to an inhibitor-free control after subtraction from all the values of that of a blank which only contained the substrates and the buffer.
The IC50 values were calculated or measured, from the inhibitions obtained at nine different concentrations, with Enzfitter® or Grafit® software. The IC50 values which appear in the results are the mean of measurements and calculations of two IC50 values.

Row | Compound | IC50 [µM]
1 | C=C(C(=O)N1C[C@H]2[C@@]3(c4ccc(C)s4)CC[C@@H](c4ccccc43)[C@]2(C(=O)O)C1)c1ccccc1OC (racemic) [Example 48, (3aRS,4SR,9SR,9aRS)-4,9-ethano-2-[2-(2-methoxyphenyl)propenoyl]-9-(5-methyl-2-thienyl)-2,3,3a,4,9,9a-hexahydro-1H-benzo[f]isoindole-3a-carboxylic Acid] | 0.095

same assay, conditions: K-Ras substrate; 60 min at 37° C.; mean of two IC50 values; read-out: In vitro inhibitory activity (K-Ras) IC50

Row | Compound | IC50 [µM]
2 | C=C(C(=O)N1C[C@@H]2[C@]3(c4ccc(C)cc4)CC[C@@H](c4ccccc43)[C@]2(C(=O)OC)C1)c1ccccc1OC (racemic) [Example 1, methyl (3aRS,4SR,9SR,9aRS)-4,9-ethano-2-[2-(2-methoxyphenyl)propenoyl]-9-(4-methylphenyl)-2,3,3a,4,9,9a-hexahydro-1H-benzo[f]isoindole-3a-carboxylate] | 0.305
3 | C=C(C(=O)N1C[C@@H]2[C@@]3(c4ccc(C)cc4)CC[C@@H](c4ccccc43)[C@]2(C(=O)O)C1)c1ccccc1OC (racemic) [Example 2, (3aRS,4SR,9RS,9aRS)-4,9-ethano-2-[2-(2-methoxyphenyl)propenoyl]-9-(4-methylphenyl)-2,3,3a,4,9,9a-hexahydro-1H-benzo[f]isoindole-3a-carboxylic Acid] | 0.045
4 | COC(=O)[C@@]12CN(C(=O)Cc3ccccc3OC)C[C@@H]1[C@]1(c3ccc(C)c(C)c3)CC[C@H]2c2ccccc21 (racemic) [Example 11, Methyl (3aRS,4SR,9SR,9aRS)-9-(3,4-dimethylphenyl)-4,9-ethano-2-[(2-methoxyphenyl)acetyl]-2,3,3a,4,9,9a-hexahydro-1H-benzo[f]isoindole-3a-carboxylate] | 0.345
5 | COc1ccccc1CC(=O)N1C[C@@H]2[C@]3(c4ccc(C)c(C)c4)CC[C@@H](c4ccccc43)[C@]2(C(=O)O)C1 (racemic) [Example 12, (3aRS,4SR,9SR,9aRS)-9-(3,4-dimethyl-phenyl)-4,9-ethano-2-[(2-methoxyphenyl)acetyl]-2,3,3a,4,9,9a-hexahydro-1H-benzo[f]isoindole-3a-carboxylic Acid] | 0.045
6 | C=C(C(=O)N1C[C@@H]2[C@]3(c4ccc(C)cc4)CC[C@@H](c4ccccc43)[C@]2(C(=O)NOCc2ccccc2)C1)c1ccccc1OC (racemic) [Example 14, benzyl (3aRS,4SR,9SR,9aRS)-4,9-ethano-2-[2-(2-methoxyphenyl)propenoyl]-9-(4-methylphenyl)-2,3,3a,4,9,9a-hexahydro-1H-benzo[f]isoindole-3a-hydroxamate] | 0.21
7 | C=C(C(=O)N1C[C@@H]2[C@]3(c4ccc(C)cc4)CC[C@@H](c4ccccc43)[C@]2(C(N)=O)C1)c1ccccc1OC (racemic) [Example 15, (3aRS,4SR,9SR,9aRS)-3a-carbamoyl-4,9-ethano-2-[2-(2-methoxyphenyl)propenoyl]-9-(4-methylphenyl)-2,3,3a,4,9,9a-hexahydro-1H-benzo[f]isoindole] | 0.17
8 | C=C(C(=O)N1C[C@@H]2[C@]3(c4ccc(C)cc4)CC[C@@H](c4ccccc43)[C@]2(C(=O)NO)C1)c1ccccc1OC (racemic) [Example 16, (3aRS,4SR,9SR,9aRS)-4,9-ethano-2-[2-(2-methoxyphenyl)propenoyl]-9-(4-methylphenyl)-2,3,3a,4,9,9a-hexahydro-1H-benzo[f]isoindole-3a-hydroxamic acid] | 0.36
9 | C=C(C(=O)N1C[C@@H]2[C@]3(c4ccc(C)cc4)CC[C@@H](c4ccccc43)[C@]2(C(=O)NOC)C1)c1ccccc1OC (racemic) [Example 21, Methyl (3aRS,4SR,9SR,9aRS)-4,9-ethano-2-[2-(2-methoxyphenyl)propenoyl]-9-(4-methylphenyl)-2,3,3a,4,9,9a-hexahydro-1H-benzo[f]isoindole-3a-hydroxamate] | 0.111
10 | C=C(C(=O)N1C[C@@H]2[C@]3(c4ccc(C)cc4)CC[C@@H](c4ccccc43)[C@]2(C(=O)NS(=O)(=O)c2ccccc2)C1)c1ccccc1OC (racemic) [Example 25, (3aRS,4SR,9SR,9aRS)-4,9-ethano-2-[2-(2-methoxyphenyl)propenoyl]-9-(4-methylphenyl)-3a-phenylsulphonylaminocarbonyl-2,3,3a,4,9,9a-hexahydro-1H-benzo[f]isoindole] | 0.193
11 | C=C(C(=O)N1C[C@@H]2[C@]3(c4ccc5c(c4)OCCO5)CC[C@@H](c4ccccc43)[C@]2(C(=O)OC)C1)c1ccccc1OC (racemic) [Example 31, methyl (3aRS,4SR,9SR,9aRS)-9-(2,3-dihydro-1,4-benzodioxin-6-yl)-4,9-ethano-2-[2-(2-methoxyphenyl)propenoyl]-2,3,3a,4,9,9a-hexahydro-1H-benzo[f]isoindole-3a-carboxylate] | 0.101
12 | C=C(C(=O)N1C[C@@H]2[C@]3(c4ccc5c(c4)OCCO5)CC[C@@H](c4ccccc43)[C@]2(C(=O)O)C1)c1ccccc1OC (racemic) [Example 32, (3aRS,4SR,9SR,9aRS)-9-(2,3-dihydro-1,4-benzodioxin-6-yl)-4,9-ethano-2-[2-(2-methoxyphenyl)-propenoyl]-2,3,3a,4,9,9a-hexahydro-1H-benzo[f]isoindole-3a-carboxylic Acid] | 0.106
13 | COc1ccccc1CC(=O)N1C[C@@H]2[C@]3(c4cc(C)c(C)c(C)c4)CC[C@@H](c4ccccc43)[C@]2(C(=O)O)C1 (racemic) [Example 37, (3aRS,4SR,9SR,9aRS)-4,9-ethano-2-[(2-methoxyphenyl)acetyl]-9-(3,4,5-trimethylphenyl)-2,3,3a,4,9,9a-hexahydro-1H-benzo[f]isoindole-3a-carboxylic Acid] | 0.088
14 | C=C(C(=O)N1C[C@@H]2[C@]3(c4ccccc4C)CC[C@@H](c4ccccc43)[C@]2(C(=O)O)C1)c1ccccc1OC (racemic) [Example 38, (3aRS,4SR,9SR,9aRS)-4,9-ethano-2-[2-(2-methoxyphenyl)propenoyl]-9-(2-methylphenyl)-2,3,3a,4,9,9a-hexahydro-1H-benzo[f]isoindole-3a-carboxylic Acid] | 0.099
15 | C=C(C(=O)N1C[C@@H]2[C@]3(c4ccc(C(F)(F)F)cc4)CC[C@@H](c4ccccc43)[C@]2(C(=O)OC)C1)c1ccccc1OC (racemic) [Example 39, methyl (3aRS,4SR,9SR,9aRS)-4,9-ethano-2-[2-(2-methoxyphenyl)propenoyl]-9-[4-(trifluoromethyl)phenyl]-2,3,3a,4,9,9a-hexahydro-1H-benzo[f]isoindole-3a-carboxylate] | 0.273
16 | C=C(C(=O)N1C[C@@H]2[C@]3(c4ccc(C(F)(F)F)cc4)CC[C@@H](c4ccccc43)[C@]2(C(=O)O)C1)c1ccccc1OC (racemic) [Example 40, (3aRS,4SR,9SR,9aRS)-4,9-ethano-2-[2-(2-methoxyphenyl)propenoyl]-9-[4-(trifluoromethyl)phenyl]-2,3,3a,4,9,9a-hexahydro-1H-benzo[f]isoindole-3a-carboxylic Acid] | 0.083
17 | C=C(C(=O)N1C[C@@H]2[C@]3(c4ccc5ccccc5c4)CC[C@@H](c4ccccc43)[C@]2(C(=O)OC)C1)c1ccccc1OC (racemic) [Example 45, methyl (3aRS,4SR,9SR,9aRS)-4,9-ethano-2-[2-(2-methoxyphenyl)propenoyl]-9-(2-naphthyl)-2,3,3a,4,9,9a-hexahydro-1H-benzo[f]isoindole-3a-carboxylate] | 0.181
18 | C=C(C(=O)N1C[C@H]2[C@@]3(c4ccc(C)s4)CC[C@@H](c4ccccc43)[C@]2(C(=O)OC)C1)c1ccccc1OC (racemic) [Example 47, methyl (3aRS,4SR,9SR,9aRS)-4,9-ethano-2-[2-(2-methoxyphenyl)propenoyl]-9-(5-methyl-2-thienyl)-2,3,3a,4,9,9a-hexahydro-1H-benzo[f]isoindole-3a-carboxylate] | 0.207
19 | C=C(C(=O)N1C[C@@H]2[C@]3(c4ccc(Br)cc4)CC[C@@H](c4ccccc43)[C@]2(C(=O)OC)C1)c1ccccc1OC (racemic) [Example 49, methyl (3aRS,4SR,9SR,9aRS)-9-(4-bromophenyl)-4,9-ethano-2-[2-(2-methoxyphenyl)-propenoyl]-2,3,3a,4,9,9a-hexahydro-1H-benzo[f]isoindole-3a-carboxylate] | 0.229
20 | C=C(C(=O)N1C[C@@H]2[C@]3(c4ccc(Br)cc4)CC[C@@H](c4ccccc43)[C@]2(C(=O)O)C1)c1ccccc1OC (racemic) [Example 50, (3aRS,4SR,9SR,9aRS)-9-(4-bromophenyl)-4,9-ethano-2-[2-(2-methoxyphenyl)propenoyl]-2,3,3a,4,9,9a-hexahydro-1H-benzo[f]isoindole-3a-carboxylic Acid] | 0.059
21 | C=C(C(=O)N1C[C@@H]2[C@]3(c4ccc(Cl)c(Cl)c4)CC[C@@H](c4ccccc43)[C@]2(C(=O)O)C1)c1ccccc1OC (racemic) [Example 51, (3aRS,4SR,9SR,9aRS)-9-(3,4-dichlorophenyl)-4,9-ethano-2-[2-(2-methoxyphenyl)-propenoyl]-2,3,3a,4,9,9a-hexahydro-1H-benzo[f]isoindole-3a-carboxylic Acid] | 0.068
